In ChEMBL document CHEMBL1129258, “Synthesis and structure-activity relationships of 2-pyridones: a novel series of potent DNA gyrase inhibitors as antibacterial agents” (J Med Chem, 1996) one finds ED50, MIC and CC50 data, which are given here for eight compounds.

Test [1] has as its target T1, DNA gyrase (Staphylococcus aureus) (UniProt P0A0K8+P20831). Briefly: In vivo efficacy against Staphylococcus aureus NCTC-10649M after subcutaneous administration. The test is classed as functional, organism-based.
Test [2] has as its target T2, DNA gyrase (Escherichia coli) (UniProt P0AES6+P0AES4). Description: In vivo efficacy against Escherichia coli JUHL after oral administration. The note with it: Escherichia coli K-12. The test is classed as functional, organism-based.
The target of test [3] is T1, DNA gyrase (Staphylococcus aureus). Description: In vivo efficacy against Staphylococcus aureus NCTC-10649M after oral administration. The test is classed as functional, organism-based.
For test [4], the target named is T2, DNA gyrase (Escherichia coli). Briefly: In vivo efficacy against Escherichia coli JUHL by subcutaneous administration. The test is classed as functional, organism-based. The note with it: Escherichia coli K-12.
For test [5] the target is unchanged. Briefly: In vitro antibacterial activity against gram-negative organism Prov. stuartii CMX-640. The test is classed as functional. The following applies: Providencia stuartii.
The target is the same in test [6]. The note with it: Escherichia coli K-12.
Description: Concentration which causes 50% of the gyrase (Escherichia coli H560)-mediated maximal DNA cleavage.
For test [7] the target is unchanged. Briefly: In vitro antibacterial activity against gram-positive organism Streptococcus bovis A-5169. In kind it is functional. The note with it: Streptococcus equinus.
For test [8], the target named is T1, DNA gyrase (Staphylococcus aureus). Description: In vitro antibacterial activity against gram-positive organism Staphylococcus aureus ATCC 6538p. The test is classed as functional.
The target of test [9] is T2, DNA gyrase (Escherichia coli). Briefly: In vitro antibacterial activity against gram-negative organism Klebsiella pneumoniae ATCC 8045. The test is classed as functional.
For test [10] the target is unchanged. Description: In vitro antibacterial activity against gram-positive organism Enterococcus faecium ATCC 8043. In kind it is functional.
The target is the same in test [11]. Briefly: In vitro antibacterial activity against gram-negative organism […] ATCC 13048. The test is classed as functional. The following applies: Enterobacter aerogenes.
Test [12] can be described thus: In vitro antibacterial activity against gram-negative organism Pseudomonas aeruginosa DPHD-2862. The test is classed as functional. The following applies: Pseudomonas aeruginosa; read-out: MIC.
The target of test [13] is T1, DNA gyrase (Staphylococcus aureus). Briefly: In vitro antibacterial activity against gram-positive organism Staphylococcus aureus 1775. The test is classed as functional.
The target is the same in test [14]. Description: In vitro antibacterial activity against gram-positive organism Staphylococcus aureus NCTC-10649M. The test is classed as functional.
In another test the test system is Streptococcus pyogenes. Description: In vitro antibacterial activity against gram-positive organism Streptococcus pyogenes EES61. The test is classed as functional. The note with it: Streptococcus pyogenes; read-out: MIC.
Test [15] can be described thus: In vitro antibacterial activity against gram-negative organism Pseudomonas aeruginosa 5007. In kind it is functional.
Test [16] deals with T2, DNA gyrase (Escherichia coli). Briefly: In vitro antibacterial against gram-negative organism Escherichia coli JUHL. The following applies: Escherichia coli K-12. In kind it is functional.
Where [17] appears, read: Pseudomonas aeruginosa, read-out: MIC.

The ED50 is the midpoint of the dose-response relation.

Converted amounts (≈) assume the structure as drawn.

T1 sequence (P0A0K8 2-644 limits assumed): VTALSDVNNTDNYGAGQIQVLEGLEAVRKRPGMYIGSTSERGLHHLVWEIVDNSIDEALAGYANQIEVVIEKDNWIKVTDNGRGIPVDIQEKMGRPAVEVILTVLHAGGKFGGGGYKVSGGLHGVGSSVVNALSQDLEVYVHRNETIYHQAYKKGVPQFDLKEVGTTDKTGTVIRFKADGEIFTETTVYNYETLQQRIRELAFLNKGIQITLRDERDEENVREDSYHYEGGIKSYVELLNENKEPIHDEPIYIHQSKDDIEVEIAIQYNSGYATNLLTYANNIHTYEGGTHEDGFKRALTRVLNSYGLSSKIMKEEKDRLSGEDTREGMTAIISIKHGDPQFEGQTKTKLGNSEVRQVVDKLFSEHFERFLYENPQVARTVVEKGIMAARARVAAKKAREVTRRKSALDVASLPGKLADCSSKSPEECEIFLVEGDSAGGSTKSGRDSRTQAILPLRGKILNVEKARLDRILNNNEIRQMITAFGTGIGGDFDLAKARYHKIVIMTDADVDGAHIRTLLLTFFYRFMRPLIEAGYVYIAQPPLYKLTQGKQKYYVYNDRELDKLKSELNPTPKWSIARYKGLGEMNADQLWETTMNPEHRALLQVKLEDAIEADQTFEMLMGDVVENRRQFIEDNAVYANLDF
T1 sequence (P20831 whole entry partner): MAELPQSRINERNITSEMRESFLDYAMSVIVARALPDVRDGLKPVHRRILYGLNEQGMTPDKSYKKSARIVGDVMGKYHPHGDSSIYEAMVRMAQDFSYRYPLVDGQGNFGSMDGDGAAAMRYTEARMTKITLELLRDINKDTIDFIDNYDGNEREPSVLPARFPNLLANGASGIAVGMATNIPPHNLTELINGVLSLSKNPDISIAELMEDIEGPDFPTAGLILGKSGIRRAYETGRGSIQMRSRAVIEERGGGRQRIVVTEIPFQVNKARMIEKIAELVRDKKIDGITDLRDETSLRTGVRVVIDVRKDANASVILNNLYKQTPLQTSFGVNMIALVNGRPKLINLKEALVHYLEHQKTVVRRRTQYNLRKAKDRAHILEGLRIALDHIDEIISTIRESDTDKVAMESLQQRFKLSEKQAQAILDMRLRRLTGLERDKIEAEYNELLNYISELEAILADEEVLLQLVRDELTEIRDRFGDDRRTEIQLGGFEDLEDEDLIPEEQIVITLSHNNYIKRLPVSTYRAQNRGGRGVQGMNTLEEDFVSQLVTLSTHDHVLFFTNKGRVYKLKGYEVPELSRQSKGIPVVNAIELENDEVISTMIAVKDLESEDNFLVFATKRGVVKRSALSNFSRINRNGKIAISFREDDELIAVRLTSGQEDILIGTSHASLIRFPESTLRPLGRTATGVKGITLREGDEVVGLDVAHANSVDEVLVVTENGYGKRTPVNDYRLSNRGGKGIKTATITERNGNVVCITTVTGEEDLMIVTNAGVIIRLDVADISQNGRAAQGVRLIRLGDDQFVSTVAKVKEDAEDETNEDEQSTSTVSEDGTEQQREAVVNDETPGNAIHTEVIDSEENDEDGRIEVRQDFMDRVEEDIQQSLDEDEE

For `CC(NC(=O)C(C)N[C@H]1C[C@H](C)N(c2nc3c(-c4ccc(F)cc4F)cc(C(=O)O)c(=O)n3cc2F)C1)C(=O)O` (stereo not given in full), the ED50 in [1] amounted to 11.4 mg/kg; in [2], 26.7 mg/kg; in test [3], 25.3 mg/kg; in test [4], 3.3 mg/kg.
For `Cc1c(NCCN)c(F)cn2c(=O)c(C(=O)O)cc(C3CC3)c12`, the MIC in test [5] came to 6.2 µg/mL (≈ 19.4 µM); in [7], 12.5 µg/mL (≈ 39.1 µM); in test [8], 0.78 µg/mL (≈ 2.44 µM); in test [9], 0.2 µg/mL (≈ 0.626 µM); in test [10], 3.1 µg/mL (≈ 9.71 µM); in [11], 0.39 µg/mL (≈ 1.22 µM). Also, the MIC in [12] was 50 µg/mL (≈ 157 µM); in test [13] it was above 100 µg/mL; in test [14] it was 1.56 µg/mL (≈ 4.89 µM); in the test with Streptococcus pyogenes, 6.2 µg/mL (≈ 19.4 µM); in [15] (setting [17]), 0.78 µg/mL (≈ 2.44 µM); in test [16], 0.2 µg/mL (≈ 0.626 µM). In test [6], the CC50 is 0.8 µg/mL (≈ 2.51 µM).
On to `O=C(O)c1cc(C2CC2)c2cc(N3CCNCC3)c(F)cn2c1=O`, for which the MIC worked out at 1.56 µg/mL (≈ 4.71 µM) in test [5]; 3.1 µg/mL (≈ 9.36 µM) in test [7]; 0.2 µg/mL (≈ 0.604 µM) in [8]; 0.01 µg/mL (≈ 0.0302 µM) in test [9]; 0.78 µg/mL (≈ 2.35 µM) in test [10]; 0.05 µg/mL (≈ 0.151 µM) in test [11]. Also, the MIC in [12] turned out to be 25 µg/mL (≈ 75.4 µM); in [13], 50 µg/mL (≈ 151 µM); in test [14] it was 0.39 µg/mL (≈ 1.18 µM); in the test on Streptococcus pyogenes, 1.56 µg/mL (≈ 4.71 µM); in test [15] (setting [17]), 0.39 µg/mL (≈ 1.18 µM); in [16], 0.01 µg/mL (≈ 0.0302 µM). This compound displayed a CC50 in [6] of 0.15 µg/mL (≈ 0.453 µM).
On to `Cc1c(N2CC(N)C2)c(F)cn2c(=O)c(C(=O)O)cc(C3CC3)c12`, for which the MIC in test [5] was 1.56 µg/mL (≈ 4.71 µM); in test [7] it was 0.78 µg/mL (≈ 2.35 µM); in test [8], 0.1 µg/mL (≈ 0.302 µM); in [9], 0.01 µg/mL (≈ 0.0302 µM); in test [10], 0.2 µg/mL (≈ 0.604 µM); in [11] it was 0.05 µg/mL (≈ 0.151 µM). Further, the MIC in test [12] is 12.5 µg/mL (≈ 37.7 µM); in [13], 6.2 µg/mL (≈ 18.7 µM); in test [14], 0.05 µg/mL (≈ 0.151 µM); in the test on Streptococcus pyogenes, 0.39 µg/mL (≈ 1.18 µM); in [15] it was 0.2 pug ml-1; in test [16], 0.01 µg/mL (≈ 0.0302 µM). Moreover, the CC50 in test [6] came to 1.5 µg/mL (≈ 4.53 µM).
In the case of `Cc1c(N2C[C@H]3CCC[C@@H](N)[C@H]3C2)c(F)cn2c(=O)c(C(=O)O)cc(C3CC3)c12`, the MIC in test [5] was determined as 0.39 µg/mL (≈ 0.976 µM); in test [7], 0.002 µg/mL (≈ 0.00501 µM); in test [8] it was 0.005 µg/mL (≈ 0.0125 µM); in test [9] it was 0.02 µg/mL (≈ 0.0501 µM); in test [10] it was 0.02 µg/mL (≈ 0.0501 µM); in test [11] it was 0.1 µg/mL (≈ 0.25 µM). For the same compound, the MIC in test [12] worked out at 6.2 µg/mL (≈ 15.5 µM); in test [13] it was 0.1 µg/mL (≈ 0.25 µM); in [14], 0.005 µg/mL (≈ 0.0125 µM); in the test on Streptococcus pyogenes, 0.005 µg/mL (≈ 0.0125 µM); in [15] (setting [17]) it was 0.39 µg/mL (≈ 0.976 µM); in [16], 0.01 µg/mL (≈ 0.025 µM). Moreover, the 50% effective dose (ED50) in test [1] is 0.3 mg/kg; in test [3] it was 1.4 mg/kg.
In the case of `NC1CCN(c2c(F)cn3c(=O)c(C(=O)O)cc(C4CC4)c3c2F)C1` (stereo not given), the MIC in test [5] stood at 3.1 µg/mL (≈ 8.87 µM); in test [7], 0.78 µg/mL (≈ 2.23 µM); in [8], 0.1 µg/mL (≈ 0.286 µM); in [9], 0.01 µg/mL (≈ 0.0286 µM); in test [10], 0.78 µg/mL (≈ 2.23 µM); in test [11], 0.02 µg/mL (≈ 0.0573 µM). For the same compound, the MIC is 6.2 µg/mL (≈ 17.7 µM) in test [12]; 6.2 µg/mL (≈ 17.7 µM) in test [13]; 0.1 µg/mL (≈ 0.286 µM) in test [14]; 0.78 µg/mL (≈ 2.23 µM) with Streptococcus pyogenes; 0.39 µg/mL (≈ 1.12 µM) in test [15] (setting [17]); 0.01 µg/mL (≈ 0.0286 µM) in test [16]. The results for the ED50 in [1] and in test [3] were 2.9 mg/kg and 14.6 mg/kg, respectively. In test [6], this compound returned a CC50 of 2.2 µg/mL (≈ 6.3 µM).
For `Cc1c(N2CC[C@@]3(C[C@H]3N)C2)c(F)cn2c(=O)c(C(=O)O)cc(C3CC3)c12`, the MIC in test [5] amounted to 0.78 µg/mL (≈ 2.1 µM); in [8] it was 0.005 µg/mL (≈ 0.0135 µM); in test [9] it was 0.01 µg/mL (≈ 0.0269 µM); in test [10], 0.05 µg/mL (≈ 0.135 µM); in test [11] it was 0.05 µg/mL (≈ 0.135 µM); in [12], 6.2 µg/mL (≈ 16.7 µM). Moreover, the MIC stood at 0.39 µg/mL (≈ 1.05 µM) in test [13]; 0.01 µg/mL (≈ 0.0269 µM) in test [14]; 0.02 µg/mL (≈ 0.0538 µM) with Streptococcus pyogenes; 0.39 µg/mL (≈ 1.05 µM) in [15] (setting [17]); 0.01 µg/mL (≈ 0.0269 µM) in test [16]. The ED50 in test [1] turned out to be 1.5 mg/kg; in test [2], 12.8 mg/kg; in test [3], 6.3 mg/kg; in [4], 1.9 mg/kg.
Regarding `NC1CCN(c2nc3c(-c4c(F)c(F)c(F)c(F)c4F)cc(C(=O)O)c(=O)n3cc2F)C1` (stereo not given), the MIC in test [5] is above 100 pug ml-1; in test [7], above 100 µg/mL; in [8], 50 µg/mL (≈ 109 µM); in test [9] it was 3.1 µg/mL (≈ 6.76 µM); in test [10] it was above 100 µg/mL; in test [11] it was 6.2 µg/mL (≈ 13.5 µM). Also, the MIC in [12] is above 100 µg/mL; in test [13] it was above 100 µg/mL; in test [14] it was 50 µg/mL (≈ 109 µM); with Streptococcus pyogenes, above 100 µg/mL; in test [15] (setting [17]), 50 µg/mL (≈ 109 µM); in test [16], 6.2 µg/mL (≈ 13.5 µM). The compound further returned a CC50 in test [6] of 12.5 µg/mL (≈ 27.3 µM).
